Measured values from patent US12178802B1, “3-(1-(3-(dimethylamino)propyl)-4,5-diphenyl-1H-imidazol-2-yl)pyridin-2-ol as an antitumor and antimicrobial compound” (KING FAISAL UNIVERSITY, priority 2023, dated 2024).

Experiments:
Assay in all cases: cup-plate agar diffusion antimicrobial activity
Format in all cases: cell-based
Pseudomonas putida = test system: Pseudomonas putida
From the text: (§1) Antibacterial activity of the synthesized compound has been tested using Gram-negative strains such as Escherichia coli, Salmonella enteric, Pseudomonas aeruginosa, and Pseudomonas putida; and Gram-positive strains such as Staphylococcus aureus, Staphylococcus epidermidis, Bacillus subtilis, and Micrococcus luteus. Additionally, antifungal activity has been tested using different Candida strains such as Candida albicans, Candida glabrata, and Candida krusei.
(§2) The present compound 3-(1-(3-(Dimethylamino)propyl)-4,5-diphenyl-1H-imidazol-2-yl)pyridin-2-ol was dissolved in DMF followed by dilution in buffer to obtain final concentrations of 60,000, 30,000 and 15,000 ppm. The final concentration of DMF was less than 2% in the final buffer solutions.
(§3) Negative control was performed using DMF diluted to similar final concentrations of compound solutions. Ampicillin and Geneticin were used as positive controls with similar dilutions and final concentrations.
(§4) Using the cup-plate agar diffusion method, a definite volume of the microbial suspension (inoculums) was mixed with sterilized agar media. Plates were prepared and left to solidify and then wells were prepared using a sterile cork borer. The wells were filled with an equal volume of a solution of synthesized compounds and standard drugs. The plates were incubated for a definite time under specified conditions. The zones of inhibition were measured in cm as a parameter of antimicrobial activity.
(§5) The tested antimicrobial activity of the 3-(1-(3-(Dimethylamino)propyl)-4,5-diphenyl-1H-imidazol-2-yl)pyridin-2-ol, as compared to ampicillin, can be seen in Table 1, below, with zones of inhibition measured in cm.

Micrococcus luteus = test system: Micrococcus luteus
From the text: as §1, §2, §3, §4, §5

Salmonella enterica = test system: Salmonella enterica
From the text: as §1, §2, §3, §4, §5

Escherichia coli = test system: Escherichia coli
From the text: as §1, §2, §3, §4, §5

Pseudomonas aeruginosa = test system: Pseudomonas aeruginosa
From the text: as §1, §2, §3, §4, §5

Bacillus subtilis = test system: Bacillus subtilis
From the text: as §1, §2, §3, §4, §5

[1] = test system: Staphylococcus epidermidis
From the text: as §1, §2, §3, §4, §5

Staphylococcus aureus = test system: Staphylococcus aureus
From the text: as §1, §2, §3, §4, §5

Compound	zones of inhibition (Pseudomonas putida; concentration 15) [cm]	zones of inhibition (Pseudomonas putida; concentration 30) [cm]	zones of inhibition (Pseudomonas putida; concentration 60) [cm]	zones of inhibition (Micrococcus luteus; concentration 15) [cm]	zones of inhibition (Micrococcus luteus; concentration 30) [cm]	zones of inhibition (Micrococcus luteus; concentration 60) [cm]	zones of inhibition (Salmonella enterica; concentration 15) [cm]	zones of inhibition (Salmonella enterica; concentration 30) [cm]	zones of inhibition (Salmonella enterica; concentration 60) [cm]	zones of inhibition (Escherichia coli; concentration 15) [cm]	zones of inhibition (Escherichia coli; concentration 30) [cm]	zones of inhibition (Escherichia coli; concentration 60) [cm]	zones of inhibition (Pseudomonas aeruginosa; concentration 15) [cm]	zones of inhibition (Pseudomonas aeruginosa; concentration 30) [cm]	zones of inhibition (Pseudomonas aeruginosa; concentration 60) [cm]	zones of inhibition (Bacillus subtilis; concentration 15) [cm]	zones of inhibition (Bacillus subtilis; concentration 30) [cm]	zones of inhibition (Bacillus subtilis; concentration 60) [cm]	zones of inhibition ([1]; concentration 15) [cm]	zones of inhibition ([1]; concentration 30) [cm]	other results
CN(C)CCCn1c(-c2cccnc2O)nc(-c2ccccc2)c1-c1ccccc1 [3-(1-(3-(Dimethylamino)propyl)-4,5-diphenyl-1H-imidazol-2-yl)pyridin-2-ol]	0.1	0.5	1.1	1.2	2.4	3.2	0.7	1.0	1.7	0.6	0.9	1.00	0.6	0.7	1.1	1.1	1.5	2.7	2.1	3.0	zones of inhibition ([1]; concentration 60): 3.3 cm; zones of inhibition (Staphylococcus aureus; concentration 15): 2.0 cm; zones of inhibition (Staphylococcus aureus; concentration 30): 2.9 cm; zones of inhibition (Staphylococcus aureus; concentration 60): 3.9 cm
CC1(C)S[C@@H]2[C@H](NC(=O)[C@H](N)c3ccccc3)C(=O)N2[C@H]1C(=O)O [Ampicillin]	0.3	0.6	1.0	1.8	2.8	3.6	0.9	1.3	1.6	0.4	0.8	1.2	0.4	0.8	1.2	1.2	1.9	2.3	2.5	3.0	zones of inhibition ([1]; concentration 60): 3.5 cm; zones of inhibition (Staphylococcus aureus; concentration 15): 2.9 cm; zones of inhibition (Staphylococcus aureus; concentration 30): 3.5 cm; zones of inhibition (Staphylococcus aureus; concentration 60): 4.0 cm
